According to US4089947A, “Antibiotic compositions containing validamycin compounds” (priority 1976, dated 1978):

Key:
Format in all cases: in vivo
Rhyzoctonia solani = test: Cucumber damping-off control test; conditions: 14 days after sowing
Protocol: Cucumber damping-off control test
Rhyzoctonia solani is cultured on barley medium at 28° C for 5 days. A field soil sample is packed into clay pots 9 cm in diameter, which are then sterilized with steam. The chaff inoculum is evenly worked into the cover soil of each pot to the depth of about 3 cm, at the rate of 2g./pot. The pots are kept in an incubation chamber at 28° C for 4 days and, then, transferred to a greenhouse.
As per Experiment 1, the drug is sprayed onto the soil surface at the rate of 30 ml./6 pots/group.
Healthy seeds of cucumber (variety: Yonyo) are sown by burial in the pots immediately after treatment, at the rate of 10 seeds/pot. The pots are then placed in a greenhouse at 32°-28° C.
14 days after sowing, the results are evaluated against the following coefficients of lesion and the degrees of damage are calculated.
Coefficients of lesion (I)
0.5 : Root hairs alone are slightly affected.
1 : Aerial portions near soil surface and roots affected.
2 : Early stage of damping-off.
3 : Affected at germination; growth inhibited.
Degree of damage (%) =(Σ(nI))/3 × N × 100 wherein n means the number of samples corresponding to each coefficient of lesion and N means the total number of plants.

Pellicularia sasakii [1] = test: Rice sheath blight control test, remedial; conditions: inoculation 3 days before application, untreated 34.4cm
Protocol: (§1) Rice sheath blight control test
(§2) Rice Plants (variety: Kinmaze) are planted in earthen pots 9 cm in diameter, 3 stocks per pot. Seedlings 80 days after potting are tested and 6 pots each of them are grouped.
(§3) Pathogenic fungi Pellicularia sasakii is cultivated on a plate of potato infusion-sugar-agar at 30°C for 48 hours, and its agar disc 10mm in diameter is cut out from a peripheral colony. The disc is inserted into the inside space of the leaf sheath near the soil surface, a disc per stem. The pots are kept in a PVC shelter at the temperature of 32°-25° C and the relative humidity of 100-70%. Inoculation is carried out immediately after the applied drug has been air-dried in the prophylactic test, and 3 days before application in the remedial test.
(§4) 10 days after application of the drug, the length of each stem from ground level to the upper edge of the lesion is directly measured.

Pellicularia sasakii [2] = test: Rice sheath blight control test, preventive (prophylactic); conditions: 10 days after application, untreated 34.4cm
Protocol: as §1, §2, §3, §4

Compound: O=[N+]([O-])c1c(Cl)c(Cl)c(Cl)c(Cl)c1Cl [Pentachloronitrobenzene, reference compound]
- Degree of damage (Rhyzoctonia solani; 5 ppm): 100%
- Degree of damage (Rhyzoctonia solani; 20 ppm): 100%
- Degree of damage (Rhyzoctonia solani; 80 ppm): 100%

Compound: Methyl arsonic acid ammonium complex salt [MAFA, reference compound]
- Remedial effect (percent of the average length of lesion/stem per control untreated) (Pellicularia sasakii [1]; 3 ppm): 89%
- Remedial effect (percent of the average length of lesion/stem per control untreated) (Pellicularia sasakii [1]; 10 ppm): 30%
- Remedial effect (percent of the average length of lesion/stem per control untreated) (Pellicularia sasakii [1]; 30 ppm): 15%
- Remedial effect (percent of the average length of lesion/stem per control untreated) (Pellicularia sasakii [1]; 100 ppm): 13%
- Remedial effect (percent of the average length of lesion/stem per control untreated) (Pellicularia sasakii [1]; 300 ppm): 10%
- Preventive effect (percent of the average length of lesion/stem per control untreated) (Pellicularia sasakii [2]; 3 ppm): 76%
- Preventive effect (percent of the average length of lesion/stem per control untreated) (Pellicularia sasakii [2]; 10 ppm): 51%
- Preventive effect (percent of the average length of lesion/stem per control untreated) (Pellicularia sasakii [2]; 30 ppm): 0%
- Preventive effect (percent of the average length of lesion/stem per control untreated) (Pellicularia sasakii [2]; 100 ppm): 0%
- Preventive effect (percent of the average length of lesion/stem per control untreated) (Pellicularia sasakii [2]; 300 ppm): 0%
